Laboratory results: patent publication US20100120711A1, “AMPK POTENTIATOR CONTAINING CHITO-OLIGOSACCHARIDE” (AMOREPACIFIC CORPORATION, priority 2006, published 2010)

Tests used:
Format in all cases: cell-based
ACC = ACC activation: western blot of ACC and p-ACC protein expression in liver cells; conditions: HepG2 liver cells
Protocol: (§1) Chito-oligosaccharides with a molecular weight of 2,000 and 9,000 (100, 500 ppm) and liver cells (HepG2) treated by AICAR (1 mM) were added to a lysis buffer (50 mM Tris-HCl, pH 7.4, 150 mM NaCl, 0.1% SDS, 1.0% Triton X-100. 0.25% Deoxycholate, 1 mM EDTA, 1 mM PMSF) to disrupt the cells. The homogenate was centrifuged at 12,000 rpm for 15 minutes and a layer of protein was obtained. The degree of expression of ACC and p-ACC proteins was determined by a western blotting. 50 μg of protein was loaded on SDS-polyacrylamide gel, electrophoresis was carried out, and the gel was transferred to a nitrocellulose membrane. The membrane was reacted with blocking solution (5% skim milk, 10 mM Tris, pH7.5, 10 mM NaCl, 0.1% Tween 20) for 1 hour to remove nonspecific bindings, the primary antibodies to AMPK and p-AMPK proteins were added and it was maintained overnight at 4° C. Thereafter, it was washed with a blocking solution for 10 minutes three times, the secondary antibodies were added thereto, and they were reacted for 1 hour and washed as described above. After adding ECL solution, the membrane was exposed to X-ray film and the amount of protein was measured. The change in the amount of protein was calculated by an optical density with an image analyzer.
The expressions of ACC and p-ACC proteins were measured by a Western blotting as described above.

AMPK = AMPK activation: western blot of AMPK and p-AMPK protein expression in liver cells; conditions: HepG2 liver cells; AICAR 1 mM; chito-oligosaccharide 100, 500 ppm; western blot optical density
Protocol: as §1

liver cells (HepG2) [1] = assay: Production of ATP in liver cells (ATP assay kit, luminescence); conditions: 5 to 500 ppm, 24 hours culture
Protocol: The production of ATP according to AMPK activation was measured by ATP assay kit. HepG2 cells were seeded on a 96-well plate and the seeded plate was stabilized and, thereafter, AICAR and chito-oligosaccharide were added in a concentration of 5 to 500 ppm. After culturing for 24 hours, the reagent prepared by mixing a substrate and a buffer was added to each well and they were reacted for 30 minutes at a room temperature. Cells were disrupted by mixing them in an orbital shaker and, after stabilizing them for 10 minutes, a luminescence was measured.

liver cells (HepG2) [2] = assay: Fatty acid oxidation in liver cells ([1-14C]-palmitate); conditions: 6 hours culture, positive control
Protocol: To determine the degree of fatty acid oxidation in liver cells, HepG2 cells were seeded on a 96-well plate. After stabilizing the seeded plate, AICAR and chito-oligosaccharide were added in a concentration of 100 and 500 ppm. After culturing for 6 hours, to the cells was added […] of assay buffer (20 mM HEPES, 25 mM NaHCO3, 1.2 mM KH2PO4, 3 mM glucose, 114 mM NaCl, 4.7 mM KCl, 1.2 mM MgSO4, 2.5 mM CaCl2, 1% ultra fatty acid-free BSA) and they are reacted for 30 minutes. Then, [1-^14C]-palmitate (3.4 μCi; 1.0 μCi/μmole) was incorporated thereto and labeling was carried out for 2 hours. 5% perchloric acid was added to stop the reaction and the amount of radiation was measured.

## NC(=O)c1ncn([C@@H]2O[C@H](CO)[C@@H](O)[C@H]2O)c1N [AICAR, AICA-riboside]
ACC; AICAR 1 mM, chito-oligosaccharide concentration not specified
  amount of p-ACC protein expression: up to twice
ACC; western blot
  total amount of ACC protein expression: not changed
AMPK
  expression of p-AMPK protein: increased twice or more
Liver cells (HepG2) [1]
  production of ATP: up to twice
Liver cells (HepG2) [2]
  increased oxidation of fatty acid: about 35%
